Test results from paper PMC10893631, “Receptor-based pharmacophore modeling, molecular docking, synthesis and biological evaluation of novel VEGFR-2, FGFR-1, and BRAF multi-kinase inhibitors” (BMC Chemistry, 2024).

How the values were obtained:
Experiment in all cases: NCI SRB growth inhibition (single dose 10 µM / five-dose)
Type in all cases: cell-based, human
MDA-MB-231/ATCC = conditions: Homo sapiens; for inhibition at 10 µM: MDA-MB-231/ATCC (Breast cancer), read-out: GI%
Outline: (§1)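 Two-stage NCI-60 screen: single-dose test first, then five-dose testing. Growth is scored by sulforhodamine B staining of TCA-fixed cells relative to a time-zero plate, and TGI is taken where Ti = Tz.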

PC-3 = conditions: Homo sapiens; for inhibition at 10 µM: PC-3 (Prostate cancer), read-out: GI%
Outline: as §1

HOP-62 = conditions: Homo sapiens
Outline: as §1

SN12C = conditions: Homo sapiens; for inhibition at 10 µM: SN12C (Renal cancer), read-out: GI%
Outline: as §1

OVCAR-3 = conditions: Homo sapiens; for inhibition at 10 µM: OVCAR-3 (Ovarian cancer), read-out: GI%
Outline: as §1

HOP-92 = conditions: Homo sapiens; for inhibition at 10 µM: HOP-92 (Non-small cell lung cancer), read-out: GI%
Outline: as §1

NCI-H460 = conditions: Homo sapiens; for inhibition at 10 µM: NCI-H460 (Non-small cell lung cancer), read-out: GI%
Outline: as §1

U251 = conditions: Homo sapiens, U-251; for inhibition at 10 µM: U251 (CNS cancer), read-out: GI%
Outline: as §1

MDA-MB-435 = conditions: Homo sapiens; for inhibition at 10 µM: MDA-MB-435 (Melanoma), read-out: GI%
Outline: as §1

SK-MEL-5 = conditions: Homo sapiens; for inhibition at 10 µM: SK-MEL-5 (Melanoma), read-out: GI%
Outline: as §1

NCI-H226 = conditions: Homo sapiens; for inhibition at 10 µM: NCI-H226 (Non-small cell lung cancer), read-out: GI%
Outline: as §1

NCI/ADR-RES = conditions: Homo sapiens; for inhibition at 10 µM: NCI/ADR-RES (Ovarian cancer), read-out: GI%
Outline: as §1

KM12 = conditions: Homo sapiens; for inhibition at 10 µM: KM12 (Colon cancer), read-out: GI%
Outline: as §1

A498 = conditions: Homo sapiens; for inhibition at 10 µM: A498 (Renal cancer), read-out: GI%
Outline: as §1

SK-OV-3 = conditions: Homo sapiens
Outline: as §1

IGROV1 = conditions: Homo sapiens, IGROV-1; for inhibition at 10 µM: IGROV1 (Ovarian cancer), read-out: GI%
Outline: as §1

SNB-75 = conditions: Homo sapiens; SNB-75 (CNS cancer), 10 µM; read-out: GI%
Outline: as §1

SF-268 = conditions: Homo sapiens; for inhibition at 10 µM: SF-268 (CNS cancer), read-out: GI%
Outline: as §1

NCI-H23 = conditions: Homo sapiens; for inhibition at 10 µM: NCI-H23 (Non-small cell lung cancer), read-out: GI%
Outline: as §1

HT29 = conditions: Homo sapiens, HT-29; for inhibition at 10 µM: HT29 (Colon cancer), read-out: GI%
Outline: as §1

HCT-15 = conditions: Homo sapiens; for inhibition at 10 µM: HCT-15 (Colon cancer), read-out: GI%
Outline: as §1

SF-295 = conditions: Homo sapiens; for inhibition at 10 µM: SF-295 (CNS cancer), read-out: GI%
Outline: as §1

CCRF-CEM = conditions: Homo sapiens; for inhibition at 10 µM: CCRF-CEM (Leukemia), read-out: GI%
Outline: as §1

NCI-H522 = conditions: Homo sapiens; for inhibition at 10 µM: NCI-H522 (Non-small cell lung cancer), read-out: GI%
Outline: as §1

RXF 393 = conditions: Homo sapiens; for inhibition at 10 µM: RXF 393 (Renal cancer), read-out: GI%
Outline: as §1

SK-MEL-28 = conditions: Homo sapiens; for inhibition at 10 µM: SK-MEL-28 (Melanoma), read-out: GI%
Outline: as §1

Q: For `COc1cccc(C=NNC(=O)c2ccc3[nH]c(-c4ccccc4)nc3c2)c1O` [8d, N'-(2-hydroxy-3-methoxybenzylidene)-2-phenyl-1H-benzo[d]imidazole-5-carbohydrazide], which inhibition at 10 µM (MDA-MB-231/ATCC) is on record?
A: 94.4%

Q: And the GI50 (MDA-MB-231/ATCC; MDA-MB-231/ATCC, Breast cancer, five-dose)?
A: 2410 nM

Q: And the inhibition at 10 µM (PC-3)?
A: 82.2%

Q: What about the GI50 (PC-3; PC-3, Prostate cancer, five-dose) of the same compound?
A: 2710 nM

Q: And the GI50 (HOP-62; HOP-62, Non-small cell lung cancer, five-dose)?
A: 1650 nM

Q: What about the inhibition at 10 µM (SN12C) of the same compound?
A: 91.5%

Q: And the GI50 (SN12C; SN12C, Renal cancer, five-dose)?
A: 2080 nM

Q: And the inhibition at 10 µM (OVCAR-3)?
A: > 100%

Q: And the GI50 (OVCAR-3; OVCAR-3, Ovarian cancer, five-dose)?
A: 420 nM

Q: What about the inhibition at 10 µM (HOP-92) of the same compound?
A: 68.4%

Q: What about the GI50 (HOP-92; HOP-92, Non-small cell lung cancer, five-dose) of the same compound?
A: 1580 nM

Q: What about the inhibition at 10 µM (NCI-H460) of the same compound?
A: 86.4%

Q: What about the GI50 (NCI-H460; NCI-H460, Non-small cell lung cancer, five-dose) of the same compound?
A: 2630 nM

Q: What about the inhibition at 10 µM (U251) of the same compound?
A: 99.9%

Q: What about the GI50 (U251; U251, CNS cancer, five-dose) of the same compound?
A: 760 nM

Q: And the inhibition at 10 µM (MDA-MB-435)?
A: 74.6%

Q: What about the GI50 (MDA-MB-435; MDA-MB-435, Melanoma, five-dose) of the same compound?
A: 4690 nM

Q: What about the inhibition at 10 µM (SK-MEL-5) of the same compound?
A: > 100%

Q: What about the GI50 (SK-MEL-5; SK-MEL-5, Melanoma, five-dose) of the same compound?
A: 1400 nM

Q: What about the inhibition at 10 µM (NCI-H226) of the same compound?
A: > 100%

Q: And the GI50 (NCI-H226; NCI-H226, Non-small cell lung cancer, five-dose)?
A: 530 nM

Q: What about the inhibition at 10 µM (NCI/ADR-RES) of the same compound?
A: 48%

Q: What about the GI50 (NCI/ADR-RES; NCI/ADR-RES, Ovarian cancer, five-dose) of the same compound?
A: 4650 nM

Q: And the inhibition at 10 µM (KM12)?
A: > 100%

Q: What about the GI50 (KM12; KM12, Colon cancer, five-dose) of the same compound?
A: 2580 nM

Q: What about the inhibition at 10 µM (A498) of the same compound?
A: < 5%

Q: What about the GI50 (A498; A498, Renal cancer, five-dose) of the same compound?
A: 36600 nM

Q: What about the GI50 (SK-OV-3; SK-OV-3, Ovarian cancer, five-dose) of the same compound?
A: 2560 nM

Q: What about the inhibition at 10 µM (IGROV1) of the same compound?
A: 79.9%

Q: What about the GI50 (IGROV1; IGROV1, Ovarian cancer, five-dose) of the same compound?
A: 2340 nM

Q: What about the inhibition at 10 µM (SNB-75) of the same compound?
A: 99.2%

Q: And the inhibition at 10 µM (SF-268)?
A: 99%

Q: And the GI50 (SF-268; SF-268, CNS cancer, five-dose)?
A: 1760 nM

Q: What about the inhibition at 10 µM (NCI-H23) of the same compound?
A: > 100%

Q: And the GI50 (NCI-H23; NCI-H23, Non-small cell lung cancer, five-dose)?
A: 1870 nM

Q: What about the inhibition at 10 µM (HT29) of the same compound?
A: 84.5%

Q: What about the GI50 (HT29; HT29, Colon cancer, five-dose) of the same compound?
A: 3410 nM

Q: And the inhibition at 10 µM (HCT-15)?
A: 71.6%

Q: And the GI50 (HCT-15; HCT-15, Colon cancer, five-dose)?
A: 2070 nM

Q: What about the inhibition at 10 µM (SF-295) of the same compound?
A: 83.2%

Q: And the GI50 (SF-295; SF-295, CNS cancer, five-dose)?
A: 2930 nM

Q: And the inhibition at 10 µM (CCRF-CEM)?
A: > 100%

Q: What about the GI50 (CCRF-CEM; CCRF-CEM, Leukemia, five-dose) of the same compound?
A: 300 nM

Q: And the inhibition at 10 µM (NCI-H522)?
A: > 100%

Q: What about the GI50 (NCI-H522; NCI-H522, Non-small cell lung cancer, five-dose) of the same compound?
A: 1970 nM

Q: What about the inhibition at 10 µM (RXF 393) of the same compound?
A: 86%

Q: What about the GI50 (RXF 393; RXF 393, Renal cancer, five-dose) of the same compound?
A: 3210 nM

Q: And the inhibition at 10 µM (SK-MEL-28)?
A: 96.2%

Q: And the GI50 (SK-MEL-28; SK-MEL-28, Melanoma, five-dose)?
A: 1780 nM

Q: `COc1ccc(-c2nc3cc(C(=O)NN=Cc4ccc(OC)c(O)c4)ccc3[nH]2)cc1` [8l, N'-(3-Hydroxy-4-methoxybenzylidene)-2-(4-methoxyphenyl)-1H-benzo[d]imidazole-5-carbohydrazide] was tested. Which inhibition at 10 µM (MDA-MB-231/ATCC) did it give?
A: 26.4%

Q: What about the inhibition at 10 µM (PC-3) of the same compound?
A: 51.2%

Q: And the inhibition at 10 µM (HOP-62; HOP-62 (Non-small cell lung cancer), 10 µM, read-out: GI%)?
A: 55.5%

Q: What about the inhibition at 10 µM (SN12C) of the same compound?
A: 27%

Q: What about the inhibition at 10 µM (OVCAR-3) of the same compound?
A: 37.6%

Q: And the inhibition at 10 µM (HOP-92)?
A: 17.4%

Q: What about the inhibition at 10 µM (NCI-H460) of the same compound?
A: 15%

Q: And the inhibition at 10 µM (U251)?
A: 44.8%

Q: What about the inhibition at 10 µM (MDA-MB-435) of the same compound?
A: 26.5%

Q: What about the inhibition at 10 µM (SK-MEL-5) of the same compound?
A: 55.3%

Q: What about the inhibition at 10 µM (NCI-H226) of the same compound?
A: 24.5%

Q: What about the inhibition at 10 µM (NCI/ADR-RES) of the same compound?
A: < 5%

Q: And the inhibition at 10 µM (KM12)?
A: 34.5%

Q: What about the inhibition at 10 µM (A498) of the same compound?
A: < 5%

Q: And the inhibition at 10 µM (SK-OV-3; SK-OV-3 (Ovarian cancer), 10 µM, read-out: GI%)?
A: < 5%

Q: What about the inhibition at 10 µM (IGROV1) of the same compound?
A: 20.3%

Q: What about the inhibition at 10 µM (SNB-75) of the same compound?
A: 25.8%

Q: What about the inhibition at 10 µM (SF-268) of the same compound?
A: 40.4%

Q: What about the inhibition at 10 µM (NCI-H23) of the same compound?
A: 24%

Q: And the inhibition at 10 µM (HT29)?
A: > 100%

Q: And the inhibition at 10 µM (HCT-15)?
A: < 5%

Q: What about the inhibition at 10 µM (SF-295) of the same compound?
A: 51%

Q: And the inhibition at 10 µM (CCRF-CEM)?
A: 89.4%

Q: And the inhibition at 10 µM (NCI-H522)?
A: 38.2%

Q: And the inhibition at 10 µM (RXF 393)?
A: 37.2%

Q: And the inhibition at 10 µM (SK-MEL-28)?
A: 52.5%
